Measured values: patent US20130230469A1, “Oral Care Product and Methods of Use and Manufacture Thereof” (COLGATE-PALMOLIVE COMPANY, priority 2010, published 2013)

Test system: bacteria/yeast and mold
Assay: Antimicrobial Preservation Effectiveness Test (micro robustness), double challenge test
Type: cell-based
Conditions: for microbial control: preservative in mouthwash formulation, separately or in combination
Protocol: The Antimicrobial Preservation Effectiveness Test is used to determine the antimicrobial preservation effectiveness of water-based product formulations by means of a double challenge test. Products are developed to withstand microbial challenges introduced by normal consumer use. The test is run on an aged sample (13 weeks, 40° C.). The test uses two pools of microorganisms: bacteria/yeast and mold. The product is challenged at a 1% level at day 0 and at day 7. Reduction of the inoculum is monitored over a 28 day period. The following are the acceptance criteria for mouth wash formulas. • Bacteria and Yeast must show a 99.9% reduction (3 logs) of the bacterial inoculum as determined by plate count on day 7 following each inoculation. No increase after day 7 of the second inoculation and for the remainder of the test within normal variation of the data. • Mold must show a 90.0% reduction (1 log) of the mold inoculum as determined by the plate count on day 14 following the second inoculation (day 21). No increase from day 14 to day 21 of the second inoculation of the test within normal variation of the data.

Structure (SMILES) | antimicrobial efficacy (amount reduced to 0.001%) | microbial control
Cn1sccc1=O [MIT, methylisothiazolinone] | retaining antimicrobial efficacy | acceptable microbial control
CCCCCCCC(=O)OCC(O)CO (stereo not shown) [Lexgard/gmcy, glycerol monocaprylate] |  | acceptable microbial control
OCc1ccccc1 [Benzyl alcohol, benzyl alcohol] |  | acceptable microbial control
